Converted amounts (≈) assume the structure as drawn. Like-named read-outs stand apart in the source and are kept apart here.
Legend:
[1] = system: reconstructed human epidermis cells; experiment: In vitro skin permeability (SkinEthic Episkin reconstructed human epidermis); type: in vitro ADME; conditions: receiver 15% HP-beta-CD pH 7.4
Protocol: The in vitro permeability studies were carried out in commercial reconstructed human epidermis cells (SkinEthic™ Episkin Reconstructed human epidermis). This model is composed of TR146 cells (derived from a squamous cell carcinoma of the buccal mucosa) cultivated on an inert polycarbonate filter at the air-liquid interface in a chemically defined medium. This model forms an epithelial tissue devoid of stratum corneum, resembling histologically to the mucosa of the oral cavity.
Upon receiving the cells, each insert (0.5 cm^2 or 0.33 cm^2) was placed in a plate containing 800 μL fresh medium at room temperature. The culture dishes were placed in the incubator at 37° C., 5% CO2, and saturated humidity overnight. Next day, the inserts were placed in a plate containing 800 μL 15% HP-β-cyclodextrin in H2O. CBD and CBG, and prodrugs CBDp27 and CBGp1 were dissolved in two different vehicles, 1:1:1 prop gly:water:EtOH/6% Brij 98, and 100% mineral oil. The receiver solution was 15% HP-beta-CD in phosphate buffer (pH 7.4). 400 μL the prodrugs were applied as suspensions (ca. 2 mg/ml). The plates were stirred gently at 37° C. At appropriate intervals, the receptor compartment was sampled (100 μL) and replenished with fresh […] solution each time. The samples were mixed with 100 μL of MeOH, and analyzed for drug (both the parent drug and prodrug) by HPLC-MS.
The flux-values for the rate of delivery of drugs were determined from Fick's law of diffusion.

[2] = Metabolic stability in human liver microsomes; type: in vitro ADME; conditions: for half-life at 15 µg/mL: pH 7.4, Table 3
Protocol: The prodrugs were incubated with the human liver microsomes at 37° C. as an indication of the susceptibility of prodrugs to undergo bioconversion in the liver. The reactions were initiated by adding 1.5 μL of the prodrug stock solution (10 mg/mL in DMSO) to a preheated solution consisting of 748.5 μL potassium phosphate buffer solution (20 mM, pH 7.4, ionic strength 0.5), 200 μL NADPH, and 50 μLhuman liver microsomes (mixed gender, 0.5 ml at 20 mg/mL). The solutions were stirred at a constant temperature of 37° C. At appropriate intervals, 50 μLof samples were mixed with 100 μL of ice-cold MeOH. After immediate mixing and centrifugation (5 min at 14.000 rpm), the resulting clear supernatant was analyzed for the remaining prodrug by HPLC.

[3] = Aqueous solubility of CBD and solubility in various solvents; type: physicochemical
Protocol: CBD was dissolved in 50 mM phosphate buffer, pH 6.8, containing 10% (v/v) EtOH. Suspensions were centrifuged for 3 min at 14000 rpm. Solubilities are between 15-110 μg/ml. Some floating particles can be seen which, once dissolved, cause variation in the result. When the suspension was filtered (Millex 0.45 μm) no detectable (HPLC) CBD was found.
CBD solubility in various solvents when ca. 1 mg was dissolved in ca. 1 ml. Solutions/suspensions were centrifuged, and 100 μl of the sample was mixed with 100 μl MeOH:H2O (1:1).
The solubility of CBD in various solvents is shown below: • 1. 50% EtOH:50% H2O=ca. 1 mg/ml • 2. 15% HP-beta-CD:85% H2O=0.7 mg/ml • 3. 5% HP-beta-CD:0.5% HPMC:84.5% H2O=0.16 mg/ml • 4. 4% BSA:95% H2O=0.07 mg/ml • 5. 90% Propylene glycol:10% H2O=0.87 mg/ml • 6. 30% Solutol® HS 15:10% EtOH:60% H2O=0.96 mg/ml

Structure (SMILES): C=C(C)[C@@H]1CCC(C)=C[C@H]1c1c(O)cc(CCCCC)cc1O [CBD, Cannabidiol]
- Skin permeation, applied compound (parent or intact prodrug) ([1]; vehicle mineral oil): 0.0233 ± 0.007 nmol/cm^2/h
- Skin permeation, applied compound (parent or intact prodrug) ([1]; vehicle solvent mix (1:1:1 prop gly:water:EtOH/6% Brij 98)): 1.16 ± 0.12 nmol/cm^2/h
- Half-life in human liver microsomes (single determinations) ([2]; Table 3, 37° C., NADPH): 23.4 min
- half-life at 15 µg/mL ([2]; both sexes, human, microsomes, 37° C., NADPH, read-out: Half-life in human liver microsomes (single determinations) (converted)): 36 min
- half-life at 15 µg/mL ([2]; both sexes, human, microsomes, average of determinations, read-out: Half-life in human liver microsomes (avg.) (converted)): 30 min
- microsomal CLint at 15 µg/mL ([2]; both sexes, human, microsomes, pH 7.4, Table 3, CLint = k/P, protein 1 mg, read-out: Intrinsic clearance CLint): 23.1 µL/min/mg
- Solubility after filtration (HPLC) ([3]; 50 mM phosphate buffer, pH 6.8, 10% EtOH, suspension filtered (Millex 0.45 μm)): no detectable
- solubility ([3]; 15% HP-beta-CD:85% H2O, ca. 1 mg in ca. 1 ml): 700 µg/mL (≈ 2230 µM)
- solubility ([3]; aqueous with cosolvent or surfactant or cyclodextrin, thermodynamic from solid, 4% BSA:95% H2O, ca. 1 mg in ca. 1 ml, read-out: Solubility): 70 µg/mL (≈ 223 µM)
- solubility ([3]; aqueous with cosolvent or surfactant or cyclodextrin, thermodynamic from solid, 5% HP-beta-CD:0.5% HPMC:84.5% H2O, ca. 1 mg in ca. 1 ml, read-out: Solubility): 160 µg/mL (≈ 509 µM)
- solubility ([3]; aqueous with cosolvent or surfactant or cyclodextrin, thermodynamic from solid, 30% Solutol HS 15:10% EtOH:60% H2O, ca. 1 mg in ca. 1 ml, read-out: Solubility): 960 µg/mL (≈ 3050 µM)
- solubility ([3]; aqueous with cosolvent or surfactant or cyclodextrin, thermodynamic from solid, 50% EtOH:50% H2O, ca. 1 mg in ca. 1 ml, read-out: Solubility): ~1000 µg/mL (≈ 3180 µM)
- solubility ([3]; organic solvent or mixture, thermodynamic from solid, 90% Propylene glycol:10% H2O, ca. 1 mg in ca. 1 ml, read-out: Solubility): 870 µg/mL (≈ 2770 µM)
- solubility ([3]; phosphate buffer with 10% (v/v) ethanol, aqueous with cosolvent or surfactant or cyclodextrin, thermodynamic from solid, 50 mM phosphate buffer, pH 6.8, 10% (v/v) EtOH, suspension centrifuged, read-out: Solubility): 15 to 110 µg/mL (≈ 47.7 to 350 µM)
